Results taken from PMC13006724 (Clinical Pharmacology in Drug Development, 2026).

Conditions: human, in vivo, 400 mg
Protocol: Urine PK parameters included cumulative urinary excretion from time zero to time t (Ae0‐t), maximum rate of urinary excretion (Rmax), time of maximum rate of urinary excretion (TRmax), and renal clearance (Clr). PK analyses were performed using Phoenix WinNonlin version 8.0, which was validated by Syneos Health.

- AUC0-inf: 28327.2 (4616.5) h*ng/mL
SMILES: COc1c(N2C[C@@H]3CCCN[C@@H]3C2)c(F)cc2c(=O)c(C(=O)O)cn(C3CC3)c12 [Moxifloxacin]
